From patent US20020115699A1, “Method for treating renal disease” (SmithKline Beecham p.l.c., priority 1994, published 2002)
“And” between values parts separate entries of the source, which are not always exact repeats. Equal entries are not always repeated.

How the values were obtained:
obese Zucker fa/fa rats = assay: Renal histopathology after 3 months dietary administration in obese Zucker fa/fa rats; assay type: in vivo, rat; parameters: key to Hydronephrosis (histopathological severity, kidney) / Chronic Nephropathy (histopathological severity, kidney): 0: None seen; ±: Minimal; +: Mild; + +: Moderate; + + +: Marked
Description: Obese Zucker rats are known to develop chronic nephropathy in addition to hyperlipidaemia, hyperinsulinaemia and peripheral insulin resistance (Kasiske et al 1985).
5-[4- [2-(N-methyl-N-(2-pyridyl)amino)ethoxy]benzyl]thiazolidine-2,4-dione (herein after referred to as ‘test compound’) was administered to 2-3 month old obese Zucker fa/fa rats by dietary administration to provide a daily dose over a period of 3 months ranging from 2.0-7.0 μmole/kg body weight. A group of age-matched obese Zucker fa/fa rats were given the same diet without the addition of the test compound, as was a group of lean Fa/? rats. At the end of the study, all of the control Zucker fa/fa rats had chronic nephropathy which involved dilated tubules, atrophied or hyperplastic tubular epithelial cells, thickened tubular basement membranes, segmented glomeruli or global glomerulosclerosis.
In the corresponding lean animals, 3/15 animals, a minimal degree of chronic nephropathy was seen.
Characteristically this involved dilation of the kidney pelvis.

[1] = tested on: Zucker fatty (fa/fa) rats; assay: Systolic blood pressure (tail cuff) in 9 month Zucker rat study; assay type: in vivo; details: for SYSTOLIC BLOOD PRESSURE: Zucker fatty rats
Description: A second study was performed in Zucker rats over a period of 9 months to investigate the longitudinal effects of the drug on systolic blood pressure and various indices of renal function, two of which are exemplified here. In one arm of the study, the drug was given in the diet (50 μmole/kg of diet) from aged 6-7 weeks in Zucker fatty (fa/fa) rats, whilst in a second arm of the study, drug treatment as above was delayed until proteinuria had become established after 4 months, indicative of structural damage already present in the kidneys. A third group of Zucker fatty rats and a further group of lean rats were given diet alone throughout the period of study.
After dosing with the test compound, at monthly intervals measurements were made of systolic blood pressure, urinary total protein and urinary N-acetyl β-D-glucosaminidase (NAG) activity.
Rats were enclosed in custom-built restrainers and placed on a shelf in a warming cabinet, whose temperature was controlled at approximately 30° C. An inflatable cuff with integral pulse sensor was attached to the tail of each rat. After warming for 20-30 min the tail cuff was inflated and deflated automatically and a measurement of systolic blood pressure made using an IITC Non-Invasive Blood Pressure Monitor. This cycle was repeated several times for each rat until stable values of blood pressure were obtained.
In the tables below, results are given as mean values for the group ±the standard error of the mean. Results have been analysed by one way ANOVA and significant differences from the Zucker fatty rat control group have been indicated by an asterisk.

[2] = tested on: Zucker fatty (fa/fa) rats; assay: Urinary total protein (Bio-Rad dye-binding assay, 24 h urine) in 9 month Zucker rat study; assay type: in vivo; details: for URINARY PROTEIN CONCENTRATION: Zucker fatty rats, 50 μmol/kg of diet from age 6-7 weeks (prior to renal complications), mean ± SEM
Description: A second study was performed in Zucker rats over a period of 9 months to investigate the longitudinal effects of the drug on systolic blood pressure and various indices of renal function, two of which are exemplified here. […] A third group of Zucker fatty rats and a further group of lean rats were given diet alone throughout the period of study. After dosing with the test compound, at monthly intervals measurements were made of systolic blood pressure, urinary total protein and urinary N-acetyl β-D-glucosaminidase (NAG) activity. Twenty-four hour urine collections, made in metabolism cages, were aliquoted and frozen at −70° C. until required for assay. Urinary protein concentration was measured using the Bio-Rad protein assay as modified for use in a 96-well microtitre plate. The assay is a dye-binding assay based on the differential colour change of a dye in response to various concentrations of protein (Bradford, Anal. Biochem., 72, 248, 1976). After a period of incubation with Dye Reagent, diluted urine samples are read at an optical density of 595 nm using a Molecular Devices multiplate reader.

[3] = individual obese Zucker fa/fa rats, test compound in diet 2.0-7.0 μmole/kg body weight daily, 3 months
[4] = Zucker fatty (fa/fa) rats treated from age 6-7 weeks for 9 months via the diet

CN(CCOc1ccc(CC2SC(=O)NC2=O)cc1)c1ccccn1 (centres unmarked) [Test Compound, 5-[4-[2-(N-methyl-N-(2-pyridyl)amino)ethoxy]benzyl]thiazolidine-2,4-dione]
Chronic Nephropathy (histopathological severity, kidney) (obese Zucker fa/fa rats; [3]): + and ± (8×) and 0 and + +
Hydronephrosis (histopathological severity, kidney) (obese Zucker fa/fa rats; [3]): 0
incidence and degree of chronic nephropathy (obese Zucker fa/fa rats; obese Zucker fa/fa rats, 3 months in diet, compared to control Zucker fa/fa rats): reduction in the incidence and degree of chronic nephropathy
hydronephrosis (obese Zucker fa/fa rats; obese Zucker fa/fa rats, 3 months in diet, control 4/9 mild-moderate): No hydronephrosis was seen
development of hypertension [1, 4]: prevented the development of hypertension
SYSTOLIC BLOOD PRESSURE ([1]; 50 μmol/kg of diet from age 6-7 weeks (prior to renal complications), treatment duration 0 months, mean ± SEM): 102 ± 3 mm Hg
SYSTOLIC BLOOD PRESSURE ([1]; 50 μmol/kg of diet from age 6-7 weeks (prior to renal complications), treatment duration 1 month, mean ± SEM): 110 ± 3 mm Hg
SYSTOLIC BLOOD PRESSURE ([1]; 50 μmol/kg of diet from age 6-7 weeks (prior to renal complications), treatment duration 2 months, mean ± SEM): 122 ± 4 mm Hg
SYSTOLIC BLOOD PRESSURE ([1]; 50 μmol/kg of diet from age 6-7 weeks (prior to renal complications), treatment duration 3 months, mean ± SEM): 122 ± 4 mm Hg
SYSTOLIC BLOOD PRESSURE ([1]; 50 μmol/kg of diet from age 6-7 weeks (prior to renal complications), treatment duration 4 months, mean ± SEM): 126 ± 6 mm Hg
SYSTOLIC BLOOD PRESSURE ([1]; 50 μmol/kg of diet from age 6-7 weeks (prior to renal complications), treatment duration 5 months, mean ± SEM): 131 ± 4 mm Hg
SYSTOLIC BLOOD PRESSURE ([1]; 50 μmol/kg of diet from age 6-7 weeks (prior to renal complications), treatment duration 6 months, mean ± SEM): 128 ± 3 mm Hg
SYSTOLIC BLOOD PRESSURE ([1]; 50 μmol/kg of diet from age 6-7 weeks (prior to renal complications), treatment duration 7 months, mean ± SEM): 125 ± 6 mm Hg
SYSTOLIC BLOOD PRESSURE ([1]; 50 μmol/kg of diet from age 6-7 weeks (prior to renal complications), treatment duration 8 months, mean ± SEM): 133 ± 5 mm Hg
SYSTOLIC BLOOD PRESSURE ([1]; 50 μmol/kg of diet from age 6-7 weeks (prior to renal complications), treatment duration 9 months, mean ± SEM): 143 ± 4 mm Hg
SYSTOLIC BLOOD PRESSURE ([1]; 50 μmol/kg of diet started once renal complications established (after 4 months), treatment duration 0 months, mean ± SEM): 146 ± 4 mm Hg
SYSTOLIC BLOOD PRESSURE ([1]; 50 μmol/kg of diet started once renal complications established (after 4 months), treatment duration 1 month, mean ± SEM): 140 ± 5 mm Hg
SYSTOLIC BLOOD PRESSURE ([1]; 50 μmol/kg of diet started once renal complications established (after 4 months), treatment duration 2 months, mean ± SEM): 134 ± 3 mm Hg
SYSTOLIC BLOOD PRESSURE ([1]; 50 μmol/kg of diet started once renal complications established (after 4 months), treatment duration 3 months, mean ± SEM): 144 ± 3 mm Hg
SYSTOLIC BLOOD PRESSURE ([1]; 50 μmol/kg of diet started once renal complications established (after 4 months), treatment duration 4 months, mean ± SEM): 139 ± 3 mm Hg
SYSTOLIC BLOOD PRESSURE ([1]; 50 μmol/kg of diet started once renal complications established (after 4 months), treatment duration 5 months, mean ± SEM): 146 ± 6 mm Hg
SYSTOLIC BLOOD PRESSURE ([1]; 50 μmol/kg of diet started once renal complications established (after 4 months), treatment duration −1 month (before start of drug), mean ± SEM): 141 ± 6 mm Hg
SYSTOLIC BLOOD PRESSURE ([1]; 50 μmol/kg of diet started once renal complications established (after 4 months), treatment duration −2 months (before start of drug), mean ± SEM): 138 ± 7 mm Hg
SYSTOLIC BLOOD PRESSURE ([1]; 50 μmol/kg of diet started once renal complications established (after 4 months), treatment duration −3 months (before start of drug), mean ± SEM): 123 ± 5 mm Hg
SYSTOLIC BLOOD PRESSURE ([1]; 50 μmol/kg of diet started once renal complications established (after 4 months), treatment duration −4 months (before start of drug), mean ± SEM): 106 ± 3 mm Hg
SYSTOLIC BLOOD PRESSURE ([1]; drug treatment commenced after proteinuria had become established): prevented from rising further
rate of development of proteinuria [2, 4]: markedly reduced
URINARY PROTEIN CONCENTRATION ([2]; treatment duration 0 months): 226 ± 15 µg/h
URINARY PROTEIN CONCENTRATION ([2]; treatment duration 1 month): 373 ± 22 µg/h
URINARY PROTEIN CONCENTRATION ([2]; treatment duration 2 months): 402 ± 22 µg/h
URINARY PROTEIN CONCENTRATION ([2]; treatment duration 3 months): 221 ± 32 µg/h
URINARY PROTEIN CONCENTRATION ([2]; treatment duration 4 months): 376 ± 54 µg/h
URINARY PROTEIN CONCENTRATION ([2]; treatment duration 5 months): 1573 ± 105 µg/h
URINARY PROTEIN CONCENTRATION ([2]; treatment duration 6 months): 1585 ± 147 µg/h
URINARY PROTEIN CONCENTRATION ([2]; treatment duration 7 months): 2124 ± 293 µg/h
